pEC50: −log10 of the molar value.
Columns and labels:
human EDG-1 (S1P1) = target: T1, human EDG-1 (S1P1) (Homo sapiens, UniProt P21453); experiment: GTP [γ-35S] binding assay, membranes from CHO cells expressing human EDG-1; type: biochemical; details: EDG-1 GTP [γ-35S] binding, CHO cell membranes
T1 construct: expressed in transfected cells
Procedure: A. In Vitro: GPCR Activation Assay Measuring GTP [γ-^35S] Binding to Membranes Prepared from Cho Cells Expressing Human EDG Receptors
EDG-1 (S1P1) GTP [γ-^35S] binding assay: Homogenized membranes are prepared from CHO cell clones stably expressing a human EDG-1 N-terminal c-myc tag. Cells are grown in suspension in two 850 cm^2 roller bottles for three or fours days before harvesting. The cells are centrifuged down, washed once with cold PBS, and resuspended in ≦20 ml of Buffer A (20 mM HEPES, pH 7.4, 10 mM EDTA, EDTA-free complete protease inhibitor cocktail [1 tablet/25 ml]). The cell suspension is homogenized on ice, using a Polytron homogenizer at 30000 rpm at three intervals of 15 seconds each. The homogenate is first centrifuged at 2000 rpm on a tabletop low speed centrifuge for 10 minutes. The supernatant, after passing through a cell strainer, is then re-centrifuged at 50,000×g for 25 minutes at 4° C. The pellet is resuspended into buffer B (15% glycerol, 20 mM HEPES, pH 7.4, 0.1 mM EDTA, EDTA-free complete protease inhibitor cocktail [1 tablet/10 ml]). Protein concentration of the prep is determined using the BCA Protein Assay kit (Pierce) using BSA as standard. The membranes are aliquoted and kept frozen at −80° C.
Solutions of test compounds ranging from 10 mM to 0.01 nM are prepared in DMSO. S1P is diluted in 4% BSA solution as positive controls. […]

blood lymphocytes = experiment: Measurement of circulating lymphocytes (blood lymphocyte depletion) in mice; type: in vivo, Mice (C57bl/6); details: Mus musculus, oral gavage, blood collected 6 and 24 hours after administration, read-out: ED50, effective dose required displaying 50% of blood lymphocyte depletion
Procedure: C. In Vivo: Screening Assays for Measurement of Blood Lymphocyte Depletion and Assessment of Heart Effect
Measurement of circulating lymphocytes: Compounds are dissolved in DMSO and diluted to obtain a final concentration of 4% DMSO (v/v, final concentration) and then further diluted in a constant volume of Tween80 25%/H2O, v/v. Tween80 25%/H2O (200 μl), 4% DMSO, and FTY720 (10 μg) are included as negative and positive controls, respectively. Mice (C57bl/6 male, 6-10 week-old) are administered 250-300 μL of compound solution orally by gavages under short isoflurane anesthesia.
Blood is collected from the retro-orbital sinus 6 and 24 hours after drug administration under short isoflurane anesthesia. Whole blood samples are subjected to hematology analysis. Peripheral lymphocyte counts are determined using an automated analyzer. Subpopulations of peripheral blood lymphocytes are stained by fluorochrome-conjugated specific antibodies and analyzed using a fluorescent activating cell sorter (Facscalibur). Two mice are used to assess the lymphocyte depletion activity of each compound screened. The result is an ED50, which is defined as the effective dose required displaying 50% of blood lymphocyte depletion.

T1 sequence (P21453 whole entry): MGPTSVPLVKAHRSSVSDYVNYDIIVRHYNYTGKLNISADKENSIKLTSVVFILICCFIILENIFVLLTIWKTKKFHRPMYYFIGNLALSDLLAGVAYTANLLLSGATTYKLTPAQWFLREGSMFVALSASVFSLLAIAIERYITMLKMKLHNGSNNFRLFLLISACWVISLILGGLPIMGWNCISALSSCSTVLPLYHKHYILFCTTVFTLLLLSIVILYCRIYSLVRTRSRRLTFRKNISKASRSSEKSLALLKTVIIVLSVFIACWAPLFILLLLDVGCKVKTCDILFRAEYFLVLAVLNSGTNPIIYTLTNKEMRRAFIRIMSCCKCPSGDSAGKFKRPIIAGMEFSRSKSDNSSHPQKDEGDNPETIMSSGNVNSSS

SMILES | pEC50 (human EDG-1 (S1P1)) | ED50 (blood lymphocytes)
CCc1cc(/C(C)=N/OCc2ccc(C3CCCCC3)c(C(F)(F)F)c2)ccc1CN1CC(C(=O)O)C1 [Example 3, 1-{4-[1-(4-Cyclohexyl-3-trifluoromethyl-benzyloxyimino)-ethyl]-2-ethyl-benzyl}-azetidine-3-carboxylic acid] | 9.70 | 0.1 mg/kg
CCc1cc(/C(C)=N/OCc2ccc(C3CCCCC3)c(C(F)(F)F)c2)ccc1CNCCC(=O)O [Example 2, 3-{4-[1-(4-Cyclohexyl-3-trifluoromethyl-benzyloxyimino)-ethyl]-2-ethyl-benzylamino}-propionic acid] | 9.10 | 0.07 mg/kg

From patent publication US7939519B2, “Immunosuppresant compounds and compositions” (Novartis AG, priority 2003, dated 2011)
